According to US4752469A, “Potentiators of beta-lactam antibiotics” (E. R. Squibb & Sons, Inc., priority 1984, dated 1988):
In brackets after ≈: the same amount, converted by molar mass. Entries after “also recorded” stand apart in the source; their conditions may differ. Like-named read-outs stand apart in the source and are kept apart here. Starred links: 1 amine or outer side, 2 acyl side, 3 side chain; linkers in the order of their positions; H or OH if unused. Non-standard residues stand in square brackets, D forms with d. Residues, ends and D or L forms follow the SMILES beside them. ξ: configuration not given here. *: point of attachment. X1 = CC(=O)N[C@H]1[C@H](OC2CC(C(=O)[*:2])N([*:1])C2CO)O[C@H](CO)[C@@H](OS(=O)(=O)O)[C@@H]1O; βGlcNAc = CC(=O)N[C@@H]1[C@@H](O)[C@H](O)[C@@H](CO)O[C@H]1*; ξE = NC(CCC(=O)O)C(=O)O; ξK = NCCCCC(N)C(=O)O; ξT = CC(O)C(N)C(=O)O; ξS = NC(CO)C(=O)O

Legend:
Escherichia coli SC 8294 = settings: for Interaction: Escherichia coli SC 8294; for potentiation of β-lactam antibiotics: vs. Escherichia coli, in words
Method: (§1) The technique used was the double disk diffusion test, described by D. J. Krogstad and R. C. Moellering, Jr. in: Antibiotics in Laboratory Medicine, ed. V. Lorian, pps. 298-341, Williams and Wilkins, 1980. Disks contained 30 μg of compound, and unless noted otherwise, were placed adjacent to each other on the surface of a nutrient agar seeded with a test organism in a Petri dish.

Proteus rettgeri SC 8479 [1] = settings: for potentiation of cell wall synthesis inhibitors other than β-lactams: Proteus rettgeri system; for potentiation of cell wall synthesis inhibitors other than β-lactams / potentiation of β-lactam antibiotics: in words; for potentiation of β-lactam antibiotics: vs. Proteus rettgeri
Method: as §1

gram-negative bacteria = assay: enhancement of antibacterial activity of β-lactam antibiotics (general statement); format: cell-based; settings: e.g., aztreonam, ampicillin, piperacillin and moxalactam, in words
Description: Moellering, Jr. in: Antibiotics in Laboratory Medicine, ed. V. Lorian, pps. 298-341, Williams and Wilkins, 1980.

[2] = system: Staphylococcus aureus SC 1276; settings: agar dilution
[3] = system: Proteus mirabilis SC 3855; settings: agar dilution
Proteus rettgeri SC 8479 [4] = settings: agar dilution
Proteus vulqaris SC 9416 = settings: agar dilution
[5] = system: Salmonella typhosa SC 1195
[6] = 30 μg/disc compound plus Cefoxitin 30 μg/disc
[7] = 30 μg/disc compound plus Cephalothin 30 μg/disc
[8] = 30 μg/disc compound plus Mecillinam 10 μg/disc
[9] = 30 μg/disc compound plus N--f-thienamycin 30 μg/disc

Compound: CC(=O)N[C@@H]1[C@H](O[C@@H]2C[C@@H](C(=O)N[C@@H](CCCCN)C(=O)N[C@H](C(=O)N[C@@H](CO)C(=O)O)[C@@H](C)O[C@@H]3O[C@@H](CO)[C@@H](O)[C@H](O)[C@@H]3NC(C)=O)NC2CO)O[C@@H](CO)[C@@H](OS(=O)(=O)O)[C@@H]1O (some centres unmarked) [SQ 28,504]
- Interaction (Escherichia coli SC 8294; [6]): I
- Interaction (Escherichia coli SC 8294; [7]): I
- Interaction (Escherichia coli SC 8294; [8]): I
- Interaction (Escherichia coli SC 8294; [9]): I
- potentiation of β-lactam antibiotics (Escherichia coli SC 8294): potentiate the activity of β-lactam antibiotics
- potentiation of cell wall synthesis inhibitors other than β-lactams (Proteus rettgeri SC 8479 [1]): potentiation occurs with cell wall synthesis inhibitors other than β-lactams
- potentiation of β-lactam antibiotics (Proteus rettgeri SC 8479 [1]): potentiate the activity of β-lactam antibiotics
- enhancement of the antibacterial activity of β-lactam antibiotics (gram-negative bacteria): potentiates the antibiotic activity of several β-lactam antibiotics; also recorded: enhance the antibacterial activity of β-lactam antibiotics

Compound: CC(=O)N[C@H]1[C@H](OC2CC(C(=O)NC(CCCCN)C(=O)NC(C(=O)NC(CO)C(=O)NC(CCC(=O)O)C(=O)NC(CO)C(=O)O)C(C)O[C@@H]3O[C@H](CO)[C@@H](O)[C@H](O)[C@H]3NC(C)=O)NC2CO)O[C@H](CO)[C@@H](OS(=O)(=O)O)[C@@H]1O (some centres unmarked) [SQ 28,546] (H-[X1][ξK][ξT](βGlcNAc)[ξS][ξE][ξS]-OH)
- Interaction (Escherichia coli SC 8294; 30 μg/disc compound plus Azocillin 30 μg/disc): I
- Interaction (Escherichia coli SC 8294; 30 μg/disc compound plus Cefamandole 30 μg/disc): I
- Interaction (Escherichia coli SC 8294; 30 μg/disc compound plus Cefotaxime 30 μg/disc): I
- Interaction (Escherichia coli SC 8294; [6]): I
- Interaction (Escherichia coli SC 8294; [7]): I
- Interaction (Escherichia coli SC 8294; 30 μg/disc compound plus Diumycin 30 μg/disc): I
- Interaction (Escherichia coli SC 8294; 30 μg/disc compound plus Fosfonomycin 30 μg/disc): I
- Interaction (Escherichia coli SC 8294; [8]): I
- Interaction (Escherichia coli SC 8294; [9]): I
- Interaction (Escherichia coli SC 8294; 30 μg/disc compound plus Penicillin G 100 Units/disc): I
- Interaction (Escherichia coli SC 8294; 30 μg/disc compound plus Vancomycin 30 μg/disc): I
- potentiation of β-lactam antibiotics (Escherichia coli SC 8294): potentiate the activity of β-lactam antibiotics
- Interaction (Proteus rettgeri SC 8479 [1]; 30 μg/disc compound plus Vancomycin 30 μg/disc, Proteus rettgeri SC 8479): I
- potentiation of cell wall synthesis inhibitors other than β-lactams (Proteus rettgeri SC 8479 [1]): potentiation occurs with cell wall synthesis inhibitors other than β-lactams
- potentiation of β-lactam antibiotics (Proteus rettgeri SC 8479 [1]): potentiate the activity of β-lactam antibiotics
- enhancement of the antibacterial activity of β-lactam antibiotics (gram-negative bacteria): potentiates the antibiotic activity of several β-lactam antibiotics; also recorded: enhance the antibacterial activity of β-lactam antibiotics
- MIC [2]: > 100 µg/mL
- MIC [3]: 25 µg/mL (≈ 21.2 µM)
- MIC (Proteus rettgeri SC 8479 [4]): 12.5 µg/mL (≈ 10.6 µM)
- MIC (Proteus vulqaris SC 9416): 12.5 µg/mL (≈ 10.6 µM)
- MIC [5]: 25.0 µg/mL (≈ 21.2 µM)
